Source: ChEMBL document CHEMBL3228011, “trans-5-(3,3,3-Trifluoro-1-propenyl-)-2'-deoxyuridylate: a mechanism-based inhibitor of thymidylate synthetase” (J Med Chem, 1979)
Activity calls are given as the source filed them. The rule behind the calls is not given here.

Key:
Thymidylate synthase [1] = target: T1, Thymidylate synthase (Homo sapiens, UniProt P04818); experiment: Competitive inhibition of thymidylate synthetase (unknown origin) in presence of 5,10-methylenetetrahydrofolate
Target sequence in this assay (P04818 whole entry): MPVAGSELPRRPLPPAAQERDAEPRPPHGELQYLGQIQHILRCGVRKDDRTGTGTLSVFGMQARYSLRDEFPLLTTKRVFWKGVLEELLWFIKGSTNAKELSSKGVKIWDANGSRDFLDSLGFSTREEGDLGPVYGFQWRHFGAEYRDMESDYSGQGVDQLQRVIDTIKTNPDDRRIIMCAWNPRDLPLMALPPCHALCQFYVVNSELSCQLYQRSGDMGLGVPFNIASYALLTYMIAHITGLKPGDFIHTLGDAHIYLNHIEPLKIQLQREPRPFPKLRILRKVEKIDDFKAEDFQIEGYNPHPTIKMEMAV

Thymidylate synthase [2] = target: T1, Thymidylate synthase; experiment: Binding affinity to thymidylate synthetase (unknown origin)
Target sequence in this assay (P04818 whole entry): as above

Thymidylate synthase [3] = target: T1, Thymidylate synthase; experiment: Inhibition of thymidylate synthetase (unknown origin) assessed as decrease of first order enzyme activity in absence of 5,10-methylenetetrahydrofolate and presence of dUMP
Target sequence in this assay (P04818 2-313 limits assumed): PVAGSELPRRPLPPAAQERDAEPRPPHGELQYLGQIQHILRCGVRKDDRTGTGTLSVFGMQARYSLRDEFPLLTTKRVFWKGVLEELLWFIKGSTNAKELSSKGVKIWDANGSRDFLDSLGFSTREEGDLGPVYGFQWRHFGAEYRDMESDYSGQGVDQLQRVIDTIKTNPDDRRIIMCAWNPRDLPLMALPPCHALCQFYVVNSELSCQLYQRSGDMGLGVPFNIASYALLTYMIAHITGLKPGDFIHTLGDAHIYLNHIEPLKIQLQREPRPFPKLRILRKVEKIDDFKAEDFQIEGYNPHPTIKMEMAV

Thymidylate synthase [4] = target: T1, Thymidylate synthase; experiment: Inhibition of thymidylate synthetase (unknown origin) assessed as decrease of first order enzyme activity in absence of 5,10-methylenetetrahydrofolate
Target sequence in this assay (P04818 2-313 limits assumed): as above

Ki (Thymidylate synthase [1]): 8.6 µM
Kd (Thymidylate synthase [2]): 25 µM
inhibition (Thymidylate synthase [3]): inactive
inhibition (Thymidylate synthase [4]): Active
SMILES: O=c1[nH]c(=O)n([C@H]2C[C@H](O)[C@@H](COP(=O)(O)O)O2)cc1/C=C/C(F)(F)F
